We go through 18 compounds from US9681664B2, “Macrocyclic picolinamides as fungicides” (Dow Agrosciences LLC, priority 2012, dated 2017).

What all share (type): in vivo
Assay [1] relates to Puccinia triticina; Synonym: Puccinia recondite f. sp. tritici. The assay can be described thus: Wheat brown rust (PUCCRT) disease control on wheat seedlings. The conditions noted are these: Puccinia triticina; for pest or weed control at 121.5 g/ha: low volume application, 121.5 g/H. An outline of the steps: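 Yuma wheat grown to first fully emerged leaf was inoculated with Puccinia triticina spore suspension either before or after fungicide treatment, held overnight at 22° C. and 100% RH in darkness, then kept at 24° C. Fungicide applied by booth sprayer to run-off (acetone/water, 110 ppm Triton X-100) or as EC by track spray.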

A further assay has as its system Rhyncosporium secalis. In words: Barley scald (RHYNSE) disease control. The note with it: 24 h, High volume application, 1 Day Protectant, read-out: RHYNSE 1 DP disease control. The method, then:
Technical grades of materials were dissolved in acetone, which were then mixed with nine volumes of water containing 110 ppm Triton X-100. The fungicide solutions were applied onto wheat seedlings using an automated booth sprayer to run-off. All sprayed plants were allowed to air dry prior to further handling. All fungicides were evaluated using the aforementioned method for their activity vs. all target diseases. Wheat leaf blotch and brown rust activity were also evaluated using track spray applications, in which case the fungicides were formulated as EC formulations, containing 0.1% Trycol 5941 in the spray solutions. Barley seedlings (variety Harrington) were propagated in soil-less Metro mix, with each pot having 8 to 12 plants, and used in the test when first leaf was fully emerged. Test plants were inoculated by an aqueous spore suspension of Rhyncosporium secalis 24 hr after fungicide treatments. After inoculation the plants were kept in a dew room at 20° C. with 100% relative humidity for 48 hr. The plants were then transferred to a greenhouse set at 20° C. for disease to develop. Fungicide formulation, application and disease assessment on the sprayed leaves followed the procedures as described in the Example A.

For the next assay, the system named is Alternaria solani. The assay can be described thus: Tomato early blight (ALTESO) disease control. The conditions noted are these: 24 h, 1 Day Protectant, high volume, read-out: Disease Control ALTESO 1 DP. The method, then: Technical grades of materials were dissolved in acetone, which were then mixed with nine volumes of water containing 110 ppm Triton X-100. The fungicide solutions were applied onto wheat seedlings using an automated booth sprayer to run-off. All sprayed plants were allowed to air dry prior to further handling. All fungicides were evaluated using the aforementioned method for their activity vs. all target diseases. Wheat leaf blotch and brown rust activity were also evaluated using track spray applications, in which case the fungicides were formulated as EC formulations, containing 0.1% Trycol 5941 in the spray solutions. Tomato plants (variety Outdoor girl) were propagated in soil-less Metro mix, with each pot having one plant, and used when 12 to 14 days old. Test plants were inoculated with an aqueous spore suspension of Alternaria solani 24 hr after fungicide treatments. After inoculation the plants were kept in 100% relative humidity (one day in a dark dew chamber followed by two to three days in a lighted dew chamber at 20° C.) to permit spores to germinate and infect the leaf. The plants were then transferred to a growth room at 22° C. for disease to develop. Fungicide formulation, application and disease assessment on the sprayed leaves followed the procedures as described in the Example A.

Assay [2] deals with Glomerella lagenarium; Anamorph: Colletotrichum lagenarium. In words: Cucumber anthracnose (COLLLA) disease control. The note with it: Colletotrichum orbiculare, 24 h, 1 Day Protectant, high volume, read-out: Disease Control COLLLA 1 DP. The method, then:
Technical grades of materials were dissolved in acetone, which were then mixed with nine volumes of water containing 110 ppm Triton X-100. The fungicide solutions were applied onto wheat seedlings using an automated booth sprayer to run-off. All sprayed plants were allowed to air dry prior to further handling. All fungicides were evaluated using the aforementioned method for their activity vs. all target diseases. Wheat leaf blotch and brown rust activity were also evaluated using track spray applications, in which case the fungicides were formulated as EC formulations, containing 0.1% Trycol 5941 in the spray solutions. Cucumber seedlings (variety Bush Pickle) were propagated in soil-less Metro mix, with each pot having one plant, and used in the test when 12 to 14 days old. Test plants were inoculated with an aqueous spore suspension of Colletotrichum lagenarium 24 hr after fungicide treatments. After inoculation the plants were kept in a dew room at 22° C. with 100% relative humidity for 48 hr to permit spores to germinate and infect the leaf. The plants were then transferred to a growth room set at 22° C. for disease to develop. Fungicide formulation, application and disease assessment on the sprayed leaves followed the procedures as described in the Example A.

[3] abbreviates: 24 h, High volume application, 1 Day Protectant, read-out: PUCCRT 1DP disease control.
[4] abbreviates: 72 h, High volume application, 3 Day Curative, read-out: PUCCRT 3DC disease control.
[5] abbreviates: 24 h, Wheat Brown Rust, 1 Day Protectant, high volume application, read-out: Disease Control PUCCRT 1 DP 100 ppm.
The mark [6] stands for this setting: 24 h, Wheat Brown Rust, 1 Day Protectant, read-out: Disease Control PUCCRT 1 DP 121.5 g/H.
[7] abbreviates: 72 h, Wheat Brown Rust, 3 Day Curative, high volume application, read-out: Disease Control PUCCRT 3 DC 100 ppm.
Setting [8] is: 72 h, Wheat Brown Rust, 3 Day Curative, read-out: Disease Control PUCCRT 3 DC 121.5 g/H.

Structures are written as SMILES. Like-named read-outs stand apart in the source and are kept apart here.

As to `COc1ccnc(C(=O)N[C@H]2CCC[C@H](Oc3ccccc3)[C@@H](OCCCc3ccccc3)[C@H](C)OC2=O)c1OCOC(C)=O` [F130], the pest or weed control at 100 ppm (in assay [1] (setting [3]); in assay [1] (setting [4]); with Rhyncosporium secalis; with Alternaria solani) was 80 to 100% throughout.

In the case of `COCCC(=O)Oc1c(OC)ccnc1C(=O)N[C@H]1CCC[C@H](Oc2ccccc2)[C@@H](OCCCc2ccccc2)[C@H](C)OC1=O` [F132], the pest or weed control at 100 ppm in assay [1] (setting [3]) lay within 80 to 100%; in assay [1] (setting [4]), 80 to 100%; in the assay on Rhyncosporium secalis, 0 to 80%; with Alternaria solani, 80 to 100%.

As to `COc1ccnc(C(=O)N[C@H]2CCC[C@H](OCCCc3ccccc3)[C@@H](Oc3ccccc3)[C@H](C)OC2=O)c1OC(C)=O` [F134], the pest or weed control at 100 ppm in assay [1] (setting [3]) fell in the range of 80 to 100%; in assay [1] (setting [4]), 80 to 100%; with Rhyncosporium secalis, 80 to 100%; in the assay with Alternaria solani it was 0 to 80%.

For `CCCO[C@H]1CCC[C@H](NC(=O)c2nccc(OC)c2OCOC(C)=O)C(=O)O[C@@H](C)[C@@H]1Oc1ccccc1` [F138], the pest or weed control at 100 ppm (in assay [1] (setting [3]); in assay [1] (setting [4]); in the assay on Rhyncosporium secalis; in assay [2]; with Alternaria solani) was 80 to 100% throughout.

With `CCCO[C@H]1CCC[C@H](NC(=O)c2nccc(OC)c2OCOC(=O)C(C)C)C(=O)O[C@@H](C)[C@@H]1Oc1ccccc1` [F139], the pest or weed control at 100 ppm (in assay [1] (setting [3]); in assay [1] (setting [4]); with Rhyncosporium secalis; in assay [2]; with Alternaria solani) was 80 to 100% each time.

On to `CCCO[C@H]1CCC[C@H](NC(=O)c2nccc(OC)c2OC(=O)CCOC)C(=O)O[C@@H](C)[C@@H]1Oc1ccccc1` [F140], for which the pest or weed control at 100 ppm (in assay [1] (setting [3]); in assay [1] (setting [4]); with Rhyncosporium secalis; in assay [2]; in the assay on Alternaria solani) was 80 to 100% throughout.

For `CCCO[C@H]1CCC[C@H](NC(=O)c2nccc(OC)c2OC(C)=O)C(=O)O[C@@H](C)[C@@H]1Oc1ccccc1` [F141], the pest or weed control at 100 ppm (in assay [1] (setting [3]); in assay [1] (setting [4]); in the assay with Rhyncosporium secalis; in assay [2]; with Alternaria solani) was 80 to 100% each time.

Take `CCCO[C@H]1CCC[C@H](NC(=O)c2nccc(OC)c2OCOC(=O)C(C)C)C(=O)O[C@@H](C)[C@@H]1OC1CCCC1` [F154]: the pest or weed control at 100 ppm (in assay [1] (setting [3]); in assay [1] (setting [4]); with Rhyncosporium secalis; in assay [2]; in the assay with Alternaria solani) was 80 to 100% each time.

As to `CCCO[C@H]1CCC[C@H](NC(=O)c2nccc(OC)c2OCOC(C)=O)C(=O)O[C@@H](C)[C@@H]1OC1CCCC1` [F155], the pest or weed control at 100 ppm in assay [1] (setting [3]) lay in the range of 80 to 100%; in assay [1] (setting [4]) it was 80 to 100%; in the assay with Rhyncosporium secalis it was 0 to 80%; in assay [2], 80 to 100%; in the assay with Alternaria solani, 80 to 100%.

Turning to `COc1ccnc(C(=O)N[C@H]2CCC[C@H](OC3CCCC3)[C@@H](OCCCc3ccccc3)[C@H](C)OC2=O)c1OCOC(C)=O` [F165], the pest or weed control at 100 ppm (in assay [1] (setting [3]); in assay [1] (setting [4]); with Rhyncosporium secalis; in the assay with Alternaria solani) was 80 to 100% in each case.

On to `CCCCCO[C@H]1[C@H](C)OC(=O)[C@@H](NC(=O)c2nccc(OC)c2OCOC(C)=O)CCC[C@@H]1OC1CCCC1` [F166], for which the pest or weed control at 100 ppm (in assay [1] (setting [3]); in assay [1] (setting [4]); in the assay on Rhyncosporium secalis; in the assay with Alternaria solani) was 80 to 100% throughout.

In the case of `COc1ccc(O[C@H]2CCC[C@H](NC(=O)c3nccc(OC)c3OCOC(=O)C(C)C)C(=O)O[C@@H](C)[C@@H]2OC2CCCC2)cc1` [F169], the pest or weed control at 100 ppm (in assay [1] (setting [3]); in assay [1] (setting [4]); in the assay with Rhyncosporium secalis; with Alternaria solani) was 80 to 100% in each case.

For the compound `COc1ccc(O[C@H]2CCC[C@H](NC(=O)c3nccc(OC)c3OCOC(C)=O)C(=O)O[C@@H](C)[C@@H]2OC2CCCC2)cc1` [F170], the pest or weed control at 100 ppm (in assay [1] (setting [3]); in assay [1] (setting [4]); in the assay on Rhyncosporium secalis; in the assay with Alternaria solani) was 80 to 100% in each case.

Consider `COc1ccnc(C(=O)N[C@H]2CCC[C@H](OCCCC(F)(F)F)[C@@H](OC3CCCC3)[C@H](C)OC2=O)c1OCOC(=O)C(C)C` [F171], for which the pest or weed control at 100 ppm (in assay [1] (setting [3]); in assay [1] (setting [4]); in the assay with Rhyncosporium secalis; with Alternaria solani) was 80 to 100% each time.

As to `COc1ccnc(C(=O)N[C@H]2CCC[C@H](OCCCC(F)(F)F)[C@@H](OC3CCCC3)[C@H](C)OC2=O)c1OCOC(C)=O` [F172], the pest or weed control at 100 ppm (in assay [1] (setting [3]); in assay [1] (setting [4]); in the assay with Rhyncosporium secalis; in the assay with Alternaria solani) was 80 to 100% in each case.

For the compound `COc1ccnc(C(=O)N[C@H]2CCC[C@H](OCCCC(F)(F)F)[C@@H](OC3CCCC3)[C@H](C)OC2=O)c1OC(C)=O` [F173], the pest or weed control at 100 ppm (in assay [1] (setting [3]); in assay [1] (setting [4]); in the assay with Rhyncosporium secalis; in the assay on Alternaria solani) was 80 to 100% throughout.

For `CCOCC(=O)OCOc1c(OC)ccnc1C(=O)N[C@H]1CCC[C@H](Oc2ccccc2)[C@@H](OC(=O)C2CCCC2)[C@H](C)OC1=O` [F237], the pest or weed control at 100 ppm is 80 to 100% in assay [1] (setting [5]); 80 to 100% in assay [1] (setting [7]); less than 0% with Rhyncosporium secalis; 0 to 80% in assay [2]; 0 to 80% with Alternaria solani. Also, the pest or weed control at 121.5 g/ha fell in the range of 80 to 100% in assay [1] (setting [6]) and 0 to 80% in assay [1] (setting [8]).

Regarding `COc1ccnc(C(=O)N[C@H]2CCC[C@H](Oc3ccccc3)[C@@H](OC(=O)C3CC3)[C@H](C)OC2=O)c1OCOC(=O)C(C)C` [F241], the pest or weed control at 100 ppm lay within 80 to 100% in assay [1] (setting [5]); 80 to 100% in assay [1] (setting [7]); 0 to 80% with Rhyncosporium secalis; 80 to 100% in assay [2]; 0 to 80% in the assay on Alternaria solani. Further, the pest or weed control at 121.5 g/ha in assay [1] (setting [6]) and in assay [1] (setting [8]) was 80 to 100% throughout.
